# Several values for one entry are separate records, joined by “and”; a condition that tells them apart may be missing. Identical values can stand only once. Inconclusive results and toxic doses are left out.
# Test system: CD2F1 mice, L1210 leukemia ip, survival T/C
# Assay: NCI In Vivo Anticancer Drug Screen. Data for tumor model L1210 Leukemia (intraperitoneal) in CD2F1 (CDF1) mice
# Settings: higher = longer survival
# In short: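 Ratio T/C, where T is the treated-group value and C the vehicle-dosed control value, from mice implanted with a transplantable tumor.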
# [1] = endpoint: mean survival time, dose: 100.0 mg/kg/injection, schedule: Q01DX001 (ip), vehicle: saline
# [2] = endpoint: mean survival time, dose: 200.0 mg/kg/injection, schedule: Q01DX001 (ip), vehicle: saline
# [3] = endpoint: mean survival time, dose: 100.0 mg/kg/injection, schedule: Q01DX009 (ip), vehicle: saline with Tween-80
# [4] = endpoint: mean survival time, dose: 200.0 mg/kg/injection, schedule: Q01DX009 (ip), vehicle: saline with Tween-80
# [5] = endpoint: mean survival time, dose: 400.0 mg/kg/injection, schedule: Q01DX009 (ip), vehicle: saline with Tween-80
# [6] = endpoint: mean survival time, dose: 100.0 mg/kg/injection, schedule: Q04DX003 (ip), vehicle: saline with Tween-80
# [7] = endpoint: mean survival time, dose: 200.0 mg/kg/injection, schedule: Q04DX003 (ip), vehicle: saline with Tween-80
# [8] = endpoint: mean survival time, dose: 400.0 mg/kg/injection, schedule: Q04DX003 (ip), vehicle: saline with Tween-80
structure (smiles),measurement,setting,value
NCC1CCCCO1 (stereo unspecified),T/C,"endpoint: mean survival time, dose: 50.0 mg/kg/injection, schedule: Q01DX001 (ip), vehicle: saline",90 % of control
same,T/C,[1],98 % of control
same,T/C,[2],93 % of control
O=C(COc1ccc(F)cc1)OCCO,T/C,"endpoint: mean survival time, dose: 100.0 mg/kg/injection, schedule: Q04DX002 (ip), vehicle: saline with Tween-80",105 % of control
same,T/C,"endpoint: mean survival time, dose: 200.0 mg/kg/injection, schedule: Q04DX002 (ip), vehicle: saline with Tween-80",101 % of control
same,T/C,"endpoint: mean survival time, dose: 400.0 mg/kg/injection, schedule: Q04DX002 (ip), vehicle: saline with Tween-80",105 % of control
[CH3][Sn]([CH3])([Br])[CH2]CCBr,T/C,"endpoint: mean survival time, dose: 0.39 mg/kg/injection, schedule: Q01DX009 (ip), vehicle: saline with Tween-80",100 % of control
same,T/C,"endpoint: mean survival time, dose: 0.39 mg/kg/injection, schedule: Q01DX009 (ip), vehicle: saline",90 % of control
same,T/C,"endpoint: mean survival time, dose: 0.78 mg/kg/injection, schedule: Q01DX009 (ip), vehicle: saline with Tween-80",100 % of control
same,T/C,"endpoint: mean survival time, dose: 0.78 mg/kg/injection, schedule: Q01DX009 (ip), vehicle: saline",90 % of control
same,T/C,"endpoint: mean survival time, dose: 1.56 mg/kg/injection, schedule: Q01DX009 (ip), vehicle: saline",97 % of control
CCCCCCCCCCCCCCCC(=O)N(C(C)CCCN(CC)CC)C(C)CCCN(CC)CC (stereo unspecified),T/C,"endpoint: mean survival time, dose: 6.25 mg/kg/injection, schedule: Q01DX009 (ip), vehicle: Klucel (hydroxypropylcellulose) (HPC)",101 % of control
same,T/C,"endpoint: mean survival time, dose: 12.5 mg/kg/injection, schedule: Q01DX009 (ip), vehicle: Klucel (hydroxypropylcellulose) (HPC)",100 % of control
same,T/C,"endpoint: mean survival time, dose: 25.0 mg/kg/injection, schedule: Q01DX009 (ip), vehicle: Klucel (hydroxypropylcellulose) (HPC)",91 % of control
C=CC(=O)Nc1cccc(OC(=O)NCC)c1,T/C,[3],94 % of control
same,T/C,[4],92 % of control
same,T/C,[5],97 % of control
O=C(COc1ccc(Cl)c(Cl)c1)Nc1ccc(C(=O)CCl)cc1,T/C,[6],100 % of control
same,T/C,[7],97 % of control
same,T/C,[8],114 % of control
CCN(CC)C(=S)SCn1ncc2ccc([N+](=O)[O-])cc21,T/C,[1],95 % of control
same,T/C,[2],92 % of control
same,T/C,"endpoint: mean survival time, dose: 400.0 mg/kg/injection, schedule: Q01DX001 (ip), vehicle: saline",89 % of control
O=S(=O)(O)O.[NH-]C1CCCCCC1[NH-].[Pt+2] (stereo unspecified),T/C,"endpoint: mean survival time, dose: 1.56 mg/kg/injection, schedule: Q04DX003 (ip), vehicle: dextrose",205 % of control
same,T/C,"endpoint: mean survival time, dose: 3.13 mg/kg/injection, schedule: Q01DX001 (ip), vehicle: dextrose",200 % of control and 204 % of control
same,T/C,"endpoint: mean survival time, dose: 3.13 mg/kg/injection, schedule: Q04DX003 (ip), vehicle: dextrose",188 % of control and 241 % of control and 103 % of control
same,T/C,"endpoint: mean survival time, dose: 6.25 mg/kg/injection, schedule: Q01DX001 (ip), vehicle: dextrose",170 % of control and 189 % of control
same,T/C,"endpoint: mean survival time, dose: 12.5 mg/kg/injection, schedule: Q01DX001 (ip), vehicle: dextrose",86 % of control
same,T/C,"endpoint: mean survival time, dose: 12.5 mg/kg/injection, schedule: Q04DX003 (ip), vehicle: dextrose",97 % of control
COc1ccn(C2OCCC(N=[N+]=[N-])C2O)c(=O)n1 (stereo unspecified),T/C,"endpoint: median survival time, dose: 12.5 mg/kg/injection, schedule: Q01DX005 (ip), vehicle: alkali diluted with saline",109 % of control
same,T/C,"endpoint: median survival time, dose: 25.0 mg/kg/injection, schedule: Q01DX005 (ip), vehicle: alkali diluted with saline",102 % of control
same,T/C,"endpoint: median survival time, dose: 50.0 mg/kg/injection, schedule: Q01DX005 (ip), vehicle: alkali diluted with saline",108 % of control
same,T/C,"endpoint: median survival time, dose: 100.0 mg/kg/injection, schedule: Q01DX005 (ip), vehicle: alkali diluted with saline",109 % of control
same,T/C,"endpoint: median survival time, dose: 200.0 mg/kg/injection, schedule: Q01DX005 (ip), vehicle: alkali diluted with saline",98 % of control
COc1cccc(/C=N/OCCNC(=O)c2ccc([N+](=O)[O-])cc2)c1,T/C,[6],97 % of control
same,T/C,[7],93 % of control
same,T/C,[8],101 % of control
COc1cc2cc3cc4cc(OC)c(OC)cc4c(C)[n+]3cc2cc1OC (tested in a mixture with another compound),T/C,"endpoint: mean survival time, dose: 12.5 mg/kg/injection, schedule: Q01DX009 (ip), vehicle: suspension in saline",109 % of control
same,T/C,"endpoint: mean survival time, dose: 25.0 mg/kg/injection, schedule: Q01DX009 (ip), vehicle: suspension in saline",110 % of control
same,T/C,"endpoint: mean survival time, dose: 50.0 mg/kg/injection, schedule: Q01DX009 (ip), vehicle: suspension in saline",114 % of control
same,T/C,"endpoint: mean survival time, dose: 100.0 mg/kg/injection, schedule: Q01DX009 (ip), vehicle: suspension in saline",107 % of control
same,T/C,"endpoint: mean survival time, dose: 200.0 mg/kg/injection, schedule: Q01DX009 (ip), vehicle: suspension in saline",110 % of control
Cc1c(-c2ccc(Cl)cc2)nc2cc(Cl)ccc2c1C(=O)O,T/C,"endpoint: mean survival time, dose: 100.0 mg/kg/injection, schedule: Q04DX002 (ip), vehicle: saline",92 % of control
same,T/C,"endpoint: mean survival time, dose: 200.0 mg/kg/injection, schedule: Q04DX002 (ip), vehicle: saline",88 % of control
same,T/C,"endpoint: mean survival time, dose: 400.0 mg/kg/injection, schedule: Q04DX002 (ip), vehicle: saline",98 % of control
CC(=O)Nc1ccc(S(=O)(=O)CO)cc1,T/C,"endpoint: mean survival time, dose: 12.5 mg/kg/injection, schedule: Q01DX009 (ip), vehicle: saline with Tween-80",97 % of control
same,T/C,"endpoint: mean survival time, dose: 25.0 mg/kg/injection, schedule: Q01DX009 (ip), vehicle: saline with Tween-80",92 % of control and 97 % of control
same,T/C,"endpoint: mean survival time, dose: 50.0 mg/kg/injection, schedule: Q01DX009 (ip), vehicle: saline with Tween-80",102 % of control and 108 % of control
same,T/C,[3],101 % of control and 108 % of control
same,T/C,[4],101 % of control and 103 % of control
same,T/C,[5],101 % of control and 109 % of control
